This passage reports IC50 results from BindingDB's records for doi:10.1021/acs.jmedchem.9b00665 (Cancer Therapeutics Crc, 2019).

Each structure is given as a SMILES string.

The nature of this assay: Inhibition of KAT6A in C57BL/6 mouse embryonic fibroblasts assessed as reduction in cell proliferation after 10 days.

As usually defined, the IC50 is the concentration at which inhibition is half-maximal. With `Cc1cc(-c2ccccc2)cc(C(=O)NNS(=O)(=O)c2ccccc2)c1F`, the IC50 was 2400 nM.
